We go through 2 compounds from US9675638B2, “Use of tungsten (VI) salts for the treatment of female infertility in non-diabetic mammals” (OXOLIFE, S.L., priority 2013, dated 2017).

In data set [1] the test system is women whose ovulation is irregular or absent. As to conditions: cited from earlier work.
Data set [2] concerns IRS2−/− female mice. The data set can be described thus: Ovulation study: phase of the estrous cycle by vaginal smears (Papanicolaou). As to conditions: for phase of the estrous cycle: individual IRS2−/− female mice, dihydrate. Format: in vivo, mouse. Also noted: key to phase of the estrous cycle: A: anestrus; D: diestrus; P: proestrus; E: estrus; M: metestrus. From the text:
(§1) 10 IRS2^−/− female mice of ages comprised between 6 and 8 weeks. 6 “wild-type” (IRS2^wt) male mice of ages comprised between 6 and 8 weeks.
(§2) The female and male mice were housed separately in normal conditions, i.e., 12-hour light/darkness cycle and controlled moisture and temperature. The animals were voluntarily fed (also named ad libitum) with a standard feed diet.
(§3) After a period of acclimation, the IRS2^−/− female mice were housed in groups of 4-6 mice/cage. Tungstate-free drinking water was administered to the animals during the pre-treatment phase (2 weeks).
(§4) Sodium tungstate was administered in the drinking water (ad libitum) by means of a 2 mg/ml solution of sodium tungstate dihydrate (marketed by Carlo Erba) in distilled water after the pre-treatment phase (day 0 of treatment) and up to 4 weeks before sacrificing the animals. The daily dose of sodium tungstate ingested by the mice is about 180 mg/kg of body weight.
During the pre-treatment period and during the first 3 weeks of treatment, vaginal smears were performed in 6 randomly chosen female mice on days −8; −5; −2; −1; 7; 8; 14; 15 and 22 to determine the phase of the estrous cycle they were in.
Between […] of saline solution was introduced into the vagina of the mice with a Pasteur pipette. The vaginal exudate was collected with the same pipette and deposited on a slide. Once air-dried, it was fixed and stained with the Papanicolaou technique.
The Papanicolaou technique comprises staining the vaginal smears fixed on the slide as follows: • 10 immersions in 50% v/v alcohol; • immersing in Harris hematoxylin solution for 3 minutes; • rinsing with running water; • 10 immersions in acid alcohol (1% hydrochloric acid); • rinsing with running water; • 10 immersions in 95% v/v alcohol; • immersing in OG-6 solution for 30 seconds; • 10 immersions in 96% v/v alcohol; • immersing in eosin solution for 1 minute; • 10 immersions in 96% v/v alcohol; • 10 immersions in 86% v/v alcohol; and • 10 immersions in xylol.
The preparations were analyzed by trained staff using a code in a single-blind manner to eliminate observer bias.
The samples were identified in the following phases: diestrus, proestrus, estrus, metestrus, anestrus or non-evaluable. The cyclicality of the four phases in periods of 4 to 6 days is an indicator of a normal estrous cycle, whereas the absence of this cyclicality and the persistence in anestrus, diestrus or proestrus phases are indicators of the absence of the estrous cycle.

The test system of data set [3] is IRS2−/− female mice. The data set is described as follows: Implantation and pregnancy study after mating with IRS2wt male mice. The class given is in vivo, mouse. The note with it: for mean number of young/implanted embryos per female mouse pregnancy: treated IRS2−/− female mice.
Description: as §1, §2, §3, §4
After the first three weeks of treatment, the IRS2^−/− female mice were housed in cages in pairs together with an IRS2^wt male mouse continuously.
The mice were observed daily in search of signs of pregnancy or birth. After 4 weeks, the male mice were exchanged between the cages and kept in said cages for another 4 weeks.
The administration of tungstate was maintained for the 8 weeks in which the male and female mice were housed together. After these 8 weeks, treatment was withdrawn and the male and female mice were housed together for 4 additional weeks.
After this period lapsed, the female mice were sacrificed and biopsied in search of indications of pregnancy.
After the mating period of the method in section B lapsed, the female mice were sacrificed and biopsied in search of indications of pregnancy.

The nature of data set [4]: Glycemia study (blood glucose after 6 hours of fasting, glucose sensor). Format: in vivo, mouse. The note with it: for glycemia, Average: average of 6 IRS2−/− female mice; for variation in glycemia during administration: first 12 days of treatment, IRS2−/− female mice; for variation in glycemia during administration / glycemia: dihydrate; for glycemia: individual IRS2−/− female mice. Here is the method: (§5) 6 IRS2^−/− female mice of ages comprised between 6 and 8 weeks.
(§6) The female mice were housed in normal conditions, i.e., 12-hour light/darkness cycle and controlled moisture and temperature. The animals were voluntarily fed (also named ad libitum) with a standard feed diet.
(§7) After a period of acclimation, sodium tungstate was administered in the drinking water (ad libitum) by means of a 2 mg/ml solution of sodium tungstate dihydrate (marketed by Carlo Erba) in distilled water after the pre-treatment phase (day 0 of treatment) and for 12 days.
(§8) Body weight was monitored on day 0, 2, 5, 7, 9 and 12 of the treatment period, and after 6 hours of fasting on each of the aforementioned days blood glucose was determined by means of withdrawing blood from the tail vein and with a glucose sensor (Roche AccuTrend Glucose Sensor. Mannheim, Germany).

Data set [5] has as its system female rats with streptozotocin-induced diabetes. As to conditions: cited from earlier work.
The next data set can be described thus: Body weight study. The class given is in vivo, mouse. As to conditions: for Body weight, Average: average of 6 IRS2−/− female mice; for variation in body weight during administration: first 12 days of treatment, IRS2−/− female mice; for variation in body weight during administration / Body weight: dihydrate; for Body weight: individual IRS2−/− female mice. How it is done: as §5, §6, §7, §8

Setting [6] is: individual treated IRS2−/− female mice, dihydrate.

Each structure is given as a SMILES string. Values joined by “and” are separate entries in the source; they are usually repeats but may differ in a detail not shown here. Identical values can stand only once. Counter-ions that a name gives are not always drawn.

Consider `CCN(CC)CCOc1ccc(C(=C(Cl)c2ccccc2)c2ccccc2)cc1` [clomiphene citrate], for which, in data set [1], the pregnancy rate is recorded as no more than 50% and the restoring ovulation result is listed as “high percentage”.

As for `O.O.[Na+].[Na+].[O]=[W](=[O])([O-])[O-]` [sodium tungstate, sodium tungstate dihydrate], the “phase of the estrous cycle” value in the data set with IRS2−/− female mice [2] (day 7 of treatment, 2 mg/ml in drinking water (about 180 mg/kg/day)) is “M and E (4×) and E-M”; in the data set on IRS2−/− female mice [2] (day 8 of treatment, 2 mg/ml in drinking water), “M and E-M (3×) and E (2×)”; in the data set on IRS2−/− female mice [2] (day 14 of treatment, 2 mg/ml in drinking water), “E and E-M (3×) and D”; in the data set on IRS2−/− female mice [2] (day 15 of treatment, 2 mg/ml in drinking water), “D and E (2×) and M (2×) and A”; with IRS2−/− female mice [2] (day 22 of treatment, 2 mg/ml in drinking water), “D (2×) and A (2×) and M and P”. Also, the “recovery of the estrous cycle, percentage of analyzed mice” value in the data set with IRS2−/− female mice [2] (infertile non-diabetic IRS2−/− female mice, on the seventh day of treatment) amounted to 100%. The Pregnancy result with IRS2−/− female mice [3] (individual treated IRS2−/− female mice, mated with IRS2wt males, dihydrate) was “YES”. The “Number of implanted embryos or young born (embryos)” value with IRS2−/− female mice [3] (setting [6]) was 7 embryos (3×) and 6 embryos. Moreover, in the data set with IRS2−/− female mice [3] (setting [6]), the “Number of implanted embryos or young born (young)” value is 8 young (2×) and 1 young and 3 young. For the same compound, in the data set with IRS2−/− female mice [3] (treated IRS2−/− female mice (untreated 9%)), the pregnancy rate is listed as 80%. Further, the “mean number of young/implanted embryos per female mouse pregnancy” value with IRS2−/− female mice [3] (dihydrate) is reported as “about 5”; in the data set with IRS2−/− female mice [3] (listed as tungsten (VI) salt, dihydrate), 5. Further, the “glycemia, Average” value in data set [4] (Day 0 (start of treatment)) worked out at 128.17 mg/dL; in data set [4] (Day 2), 117.33 mg/dL; in data set [4] (Day 5), 122.33 mg/dL; in data set [4] (Day 7), 118.83 mg/dL; in data set [4] (Day 9), 125.17 mg/dL; in data set [4] (Day 12), 118.83 mg/dL. In addition, the “variation in glycemia during administration” value in data set [4] is given as “no variations are observed”; in data set [4] (listed as tungsten (VI) salt), “does not modify”. Besides, the glycemia in data set [4] (Day 0 (start of treatment), 6 h fasting) is 146 mg/dL and 129 mg/dL and 115 mg/dL and 126 mg/dL and 141 mg/dL and 112 mg/dL; in data set [4] (Day 2, 6 h fasting) it was 136 mg/dL and 128 mg/dL and 118 mg/dL and 110 mg/dL and 105 mg/dL and 107 mg/dL; in data set [4] (Day 5, 6 h fasting), 125 mg/dL and 142 mg/dL and 114 mg/dL and 111 mg/dL and 137 mg/dL and 105 mg/dL; in data set [4] (Day 7, 6 h fasting), 140 mg/dL and 110 mg/dL and 106 mg/dL and 89 mg/dL and 133 mg/dL and 135 mg/dL; in data set [4] (Day 9, 6 h fasting), 125 mg/dl (2×) and 153 mg/dl and 109 mg/dl and 108 mg/dl and 131 mg/dl; in data set [4] (Day 12, 6 h fasting), 136 mg/dL and 116 mg/dL and 111 mg/dL and 86 mg/dL and 123 mg/dL and 141 mg/dL. Besides, the circulating insulin levels entry in data set [5] (rats with streptozotocin-induced insulinopenia and diabetes, prolonged treatment (10 weeks)) is “partially recover”. The “percentage of births with respect to the number of positive curettages” value in data set [5] (streptozotocin-diabetic females after 10 weeks of treatment, mated with healthy males (non-diabetic 100%)) is recorded as 66%. Moreover, the “Body weight, Average” value is recorded as 17.03 g in “Body weight study” (Day 0 (start of treatment)); 17.33 g in the data set “Body weight study” (Day 2); 16.97 g in “Body weight study” (Day 5); 16.84 g in the data set “Body weight study” (Day 7); 17.35 g in “Body weight study” (Day 9); 17.72 g in “Body weight study” (Day 12). In addition, the “variation in body weight during administration” value in the data set “Body weight study” is “no variations are observed”; in the data set “Body weight study” (listed as tungsten (VI) salt) it was “does not modify”. The Body weight is 22.7 g and 15.33 g and 18.21 g and 16.5 g and 13.99 g and 15.45 g in the data set “Body weight study” (Day 0 (start of treatment)); 22.9 g and 14.84 g and 18.98 g and 17.01 g and 14.18 g and 16.04 g in “Body weight study” (Day 2); 22.61 g and 14.89 g and 18.2 g and 16.61 g and 13.79 g and 15.72 g in “Body weight study” (Day 5); 22.42 g and 15.07 g and 17.81 g and 16.35 g and 13.74 g and 15.66 g in the data set “Body weight study” (Day 7); 22.85 g and 15.56 g and 17.9 g and 16.89 g and 14.5 g and 16.39 g in “Body weight study” (Day 9); 23.15 g and 15.91 g and 18.24 g and 17.19 g and 14.92 g and 16.89 g in the data set “Body weight study” (Day 12).
